According to ChEMBL document CHEMBL2396560, “Discovery of (R)-4-cyclopropyl-7,8-difluoro-5-(4-(trifluoromethyl)phenylsulfonyl)-4,5-dihydro-1H-pyrazolo[4,3-c]quinoline (ELND006) and (R)-4-cyclopropyl-8-fluoro-5-(6-(trifluoromethyl)pyridin-3-ylsulfonyl)-4,5-dihydro-2H-pyrazolo[4,3-c]quinoline (ELND007): metabolically stable γ-secretase …” (J Med Chem, 2013):
Values after ≈ are worked out from the molar mass of the structure shown.

Legend:
[1] = Oral bioavailability in rat; format: ADME, organism-based; settings: in vivo
[2] = Passive permebility in wild-type MDCK cells; format: ADME, cell-based, Canis lupus familiaris; settings: dog, read-out: permeability
Mus musculus [3] = experiment: Reduction in amyloid beta (x to 40) in FVB mouse cortex at 10 mg/kg, po administered as single dose measured at 3 hrs; format: functional; design: scale not given: the % may be the effect or the level left
Mus musculus [4] = experiment: Reduction in amyloid beta (x to 40) in FVB mouse cortex at 30 mg/kg, po administered as single dose measured at 3 hrs; format: functional; design: scale not given: the % may be the effect or the level left
Mus musculus [5] = experiment: Reduction in amyloid beta (x to 40) in FVB mouse cortex at 3 mg/kg, po administered as single dose measured at 3 hrs; format: functional; design: scale not given: the % may be the effect or the level left
Mus musculus [6] = experiment: Reduction in amyloid beta (x to 40) in FVB mouse cortex at 1 mg/kg, po administered as single dose measured at 3 hrs; format: functional; design: scale not given: the % may be the effect or the level left
[7] = Plasma concentration in FVB mouse at 30 mg/kg, po at 3 hrs; format: ADME, organism-based; design: dose 30 mg/kg, route oral
[8] = Drug uptake in FVB mouse brain at 30 mg/kg, po at 3 hrs; format: ADME, organism-based; design: dose 30 mg/kg, route oral; settings: read-out: Drug uptake
Plasma [9] = experiment: AUC (0 to 3 hrs) in FVB mouse plasma at 10 mg/kg, po; format: ADME, organism-based; design: time < 3 hr, dose 10 mg/kg, route oral; settings: in vivo
Brain [10] = experiment: AUC (0 to 3 hrs) in FVB mouse brain at 10 mg/kg, po; format: ADME, organism-based; design: time < 3 hr, dose 10 mg/kg, route oral; settings: in vivo
[11] = Plasma concentration in FVB mouse at 10 mg/kg, po at 3 hrs; format: ADME, organism-based; design: dose 10 mg/kg, route oral
Plasma [12] = experiment: AUC (0 to 3 hrs) in FVB mouse plasma at 3 mg/kg, po; format: ADME, organism-based; design: time < 3 hr, dose 3 mg/kg, route oral; settings: in vivo
[13] = Drug uptake in FVB mouse brain at 10 mg/kg, po at 3 hrs; format: ADME, organism-based; design: dose 10 mg/kg, route oral; settings: read-out: Drug uptake
[14] = Plasma concentration in FVB mouse at 3 mg/kg, po at 3 hrs; format: ADME, organism-based; design: dose 3 mg/kg, route oral
Brain [15] = experiment: AUC (0 to 3 hrs) in FVB mouse brain at 3 mg/kg, po; format: ADME, organism-based; design: time < 3 hr, dose 3 mg/kg, route oral; settings: in vivo
[16] = Drug uptake in FVB mouse brain at 3 mg/kg, po at 3 hrs; format: ADME, organism-based; design: dose 3 mg/kg, route oral; settings: read-out: Drug uptake
Plasma [17] = experiment: AUC (0 to 3 hrs) in FVB mouse plasma at 1 mg/kg, po; format: ADME, organism-based; design: time < 3 hr, dose 1 mg/kg, route oral; settings: in vivo
[18] = Plasma concentration in FVB mouse at 1 mg/kg, po at 3 hrs; format: ADME, organism-based; design: dose 1 mg/kg, route oral
Brain [19] = experiment: AUC (0 to 3 hrs) in FVB mouse brain at 1 mg/kg, po; format: ADME, organism-based; design: time < 3 hr, dose 1 mg/kg, route oral; settings: in vivo
[20] = Drug uptake in FVB mouse brain at 1 mg/kg, po at 3 hrs; format: ADME, organism-based; design: dose 1 mg/kg, route oral; settings: read-out: Drug uptake
[21] = Systemic clearance in rat; format: ADME, organism-based; settings: in vivo
[22] = Aqueous solubility of the compound; format: physicochemical; settings: buffer
[23] = Octanol-water partition co-efficient, log P of the compound by shake-flask method; format: physicochemical
Liver microsomes [24] = experiment: Glucuronidation metabolism in human liver microsomes assessed as compound remaining; format: ADME, Microsome
Liver microsomes [25] = experiment: Glucuronidation metabolism in rat liver microsomes assessed as compound remaining; format: ADME, Microsome
Liver [26] = experiment: Glucuronidation metabolism in dog liver microsomes assessed as compound remaining; format: ADME, Canis lupus familiaris, Microsome
Liver [27] = experiment: Glucuronidation metabolism in mouse liver microsomes assessed as compound remaining; format: ADME, Microsome
Liver microsomes [28] = experiment: Oxidative metabolism in human liver microsomes assessed as compound remaining; format: ADME, Microsome
Liver microsomes [29] = experiment: Oxidative metabolism in rat liver microsomes assessed as compound remaining; format: ADME, Microsome
Liver [30] = experiment: Oxidative metabolism in dog liver microsomes assessed as compound remaining; format: ADME, Canis lupus familiaris, Microsome
Liver [31] = experiment: Oxidative metabolism in mouse liver microsomes assessed as compound remaining; format: ADME, Microsome
CHO [32] = experiment: Selctivity ratio of ED50 for gamma-secretase in CHO cells assessed expressing NotchdeltaE assessed as inhibition of notch cleavage to ED50 for gamma-secretase in CHO cells assessed expressing APPSw assessed as inhibition of amyloid beta(1 to x) secretion; format: cell-based; settings: Cricetulus griseus
CHO [33] = experiment: Inhibition of gamma-secretase in CHO cells assessed expressing NotchdeltaE assessed as inhibition of notch cleavage after overnight incubation by luciferase reporter gene assay; format: cell-based; settings: Cricetulus griseus
CHO [34] = experiment: Inhibition of gamma-secretase in CHO cells assessed expressing APPSw assessed as inhibition of amyloid beta(1 to x) secretion after overnight incubation by ELISA; format: cell-based; settings: Cricetulus griseus
[35] = target: Gamma-secretase (Homo sapiens) (UniProt Q96BI3+Q9NZ42+Q8WW43+P49768+Q92542+P49810); experiment: Selctivity ratio of IC50 for partially purified human gamma-secretase-mediated cleavage of notch fusion protein to IC50 for partially purified human gamma-secretase-mediated cleavage of MBP-APPc125Sw fusion protein; format: protein-complex assay
Gamma-secretase [36] = experiment: Inhibition of partially purified human gamma-secretase-mediated cleavage of notch fusion protein measured after overnight incubation by ELISA; format: protein-complex assay
Gamma-secretase [37] = experiment: Inhibition of partially purified human gamma-secretase-mediated cleavage of MBP-APPc125Sw fusion protein measured after overnight incubation by ELISA; format: protein-complex assay
Rattus norvegicus [38] = species on record: Rattus norvegicus; experiment: Systemic clearance in rat relative to hepatic blood flow; format: ADME, organism-based, Liver; settings: in vivo
Rattus norvegicus [39] = experiment: Hepatic toxicity in rat administered for 6 months as repeated-dosing; format: organism-based; settings: in vivo
Cynomolgus monkey = experiment: Hepatic toxicity in cynomolgus monkey administered for 1 year as repeated-dosing; format: organism-based, Macaca fascicularis; settings: in vivo
Homo sapiens [40] = experiment: Hepatic toxicity in po dosed healthy human administered as gelatin capsule; format: organism-based; settings: in vivo
Homo sapiens [41] = experiment: Reduction in amyloid beta in CSF of po dosed healthy human administered as gelatin capsule measured after 5 hrs post administration; format: functional; design: scale not given: the % may be the effect or the level left
Mus musculus [42] = experiment: Toxicity in FVB mouse assessed as thymus atrophy compound administered orally bid for 7 days; format: organism-based; settings: in vivo, po, 168 h
Mus musculus [43] = experiment: Toxicity in FVB mouse assessed as goblet cell hyperplasia in intestine compound administered orally bid for 7 days; format: organism-based; settings: in vivo, po, 168 h
Mus musculus [44] = experiment: Selectivity ratio of EC25 for Reduction in amyloid beta (x to 40) brain to EC25 for change in Hes-1 mRNA level in thymus in po dosed FVB mouse
Mus musculus [45] = experiment: Toxicity in FVB mouse assessed as effect on Hes-1 mRNA level in thymus at 30 mg/kg, po administered as single dose measured at 3 hrs; format: organism-based; design: dose 30 mg/kg, route oral; settings: in vivo
Mus musculus [46] = experiment: Toxicity in FVB mouse assessed as effect on Hes-1 mRNA level in thymus at 10 mg/kg, po administered as single dose measured at 3 hrs; format: organism-based; design: dose 10 mg/kg, route oral; settings: in vivo
Mus musculus [47] = experiment: Toxicity in FVB mouse assessed as effect on Hes-1 mRNA level in thymus at 3 mg/kg, po administered as single dose measured at 3 hrs; format: organism-based; design: dose 3 mg/kg, route oral; settings: in vivo
Mus musculus [48] = experiment: Reduction in amyloid beta (x to 40) in FVB mouse cortex at 30 mg/kg, po administered as single dose measured at 6 hrs post administration; format: functional; design: scale not given: the % may be the effect or the level left
Mus musculus [49] = experiment: Reduction in amyloid beta (x to 40) in po dosed FVB mouse brain administered as single dose measured at 3 hrs; format: functional

## CC(C)NCC(O)COc1cccc2ccccc12 (stereo not drawn) [PROPRANOLOL]
[1]
  bioavailability: 30%
[2]
  Papp: 17.8 ×10⁻⁶ cm/s

## O=S(=O)(c1ccc(C(F)(F)F)cc1)N1c2cc(F)c(F)cc2-c2n[nH]cc2[C@H]1C1CC1
Mus musculus [3]
  Activity: 61%
Mus musculus [4]
  Activity: 64%
Mus musculus [5]
  Activity: 48%
Mus musculus [6]
  Activity: 32%
[7]
  concentration at 3 h: 3000 nM
[8]
  concentration at 3 h: 7200 nM
Plasma [9]
  AUC: 0.68 µM
Brain [10]
  AUC: 7 µM
[11]
  concentration at 3 h: 900 nM
Plasma [12]
  AUC: 0.68 µM
[13]
  concentration at 3 h: 2100 nM
[14]
  concentration at 3 h: 190 nM
Brain [15]
  AUC: 2.1 µM
[16]
  concentration at 3 h: 520 nM
Plasma [17]
  AUC: 0.19 µM
[18]
  concentration at 3 h: 31 nM
Brain [19]
  AUC: 0.64 µM
[20]
  concentration at 3 h: 120 nM
[21]
  clearance: 22 mL/min/kg
[22]
  solubility: 3 µg/mL (≈ 6.59 µM)
[23]
  logP: 3.91
Liver microsomes [24]
  Stability: 90%
Liver microsomes [25]
  Stability: 90%
Liver [26]
  Stability: 90%
Liver [27]
  Stability: 88%
Liver microsomes [28]
  Stability: 80%
Liver microsomes [29]
  Stability: 66%
Liver [30]
  Stability: 75%
Liver [31]
  Stability: 72%
CHO [32]
  Ratio ED50: 78
CHO [33]
  ED50: 86 nM
CHO [34]
  ED50: 1.1 nM
[35]
  Ratio IC50: 19
Gamma-secretase [36]
  IC50: 6.6 nM
Gamma-secretase [37]
  IC50: 0.34 nM
Rattus norvegicus [38]
  CLH: 40%
Rattus norvegicus [39]
  Activity: Non-toxic
Cynomolgus monkey
  Activity: Non-toxic
Homo sapiens [40]
  Activity: Toxic
Homo sapiens [41]
  Activity: 31%
Mus musculus [42]
  Activity: Non-toxic
Mus musculus [43]
  Activity: Non-toxic
Mus musculus [44]
  Selectivity ratio: 57
Mus musculus [45]
  Activity: -25%
Mus musculus [46]
  Activity: -14%
Mus musculus [47]
  Activity: -17%
Mus musculus [48]
  Activity: 82%
Mus musculus [49]
  EC25(unbound): 0.034 nM

## CC(C)[C@H](O)C(=O)N[C@@H](C)C(=O)N[C@@H]1C(=O)N(C)CCc2ccccc21 [SEMAGACESTAT]
Mus musculus [3]
  Activity: 31%
Mus musculus [4]
  Activity: 47%
Mus musculus [5]
  Activity: 19%
Mus musculus [6]
  Activity: 5%
Liver microsomes [24]
  Stability: 93%
Liver microsomes [25]
  Stability: 92%
Liver [26]
  Stability: 96%
Liver [27]
  Stability: 88%
Liver microsomes [28]
  Stability: 92%
Liver microsomes [29]
  Stability: 87%
Liver [30]
  Stability: 100%
Liver [31]
  Stability: 100%
CHO [32]
  Ratio ED50: 15
CHO [33]
  ED50: 220 nM
CHO [34]
  ED50: 15 nM
[35]
  Ratio IC50: 0.41
Gamma-secretase [36]
  IC50: 3.2 nM
Gamma-secretase [37]
  IC50: 7.9 nM
